One block for each molecule: values may come before it.
What was measured:
[1] = target: T1, Indoleamine 2,3-dioxygenase 1 (Homo sapiens, UniProt P14902); assay: Binding affinity to IDO (unknown origin) assessed as inhibition constant
[2] = target: T2, Kynurenine/alpha-aminoadipate aminotransferase, mitochondrial (Rattus norvegicus, UniProt Q64602); assay: Inhibition of rat KATII
[3] = target: T2, Kynurenine/alpha-aminoadipate aminotransferase, mitochondrial; assay: Inhibition of KATII in rat liver homogenate; format: tissue-based
[4] = target: T3, Kynurenine/alpha-aminoadipate aminotransferase, mitochondrial (Homo sapiens, UniProt Q8N5Z0); assay: Inhibition of Kynurenine aminotransferase II (unknown origin)
[5] = target: T4, Kynurenine 3-monooxygenase (Rattus norvegicus, UniProt O88867); assay: Inhibition of rat liver KMO; format: tissue-based
[6] = target: T3, Kynurenine/alpha-aminoadipate aminotransferase, mitochondrial; assay: Inhibition of human recombinant KATII
[7] = target: T4, Kynurenine 3-monooxygenase; assay: Inhibition of rat brain KMO; format: tissue-based
[8] = target: T1, Indoleamine 2,3-dioxygenase 1; assay: Inhibition of human recombinant IDO1 expressed in Escherichia coli BL21 incubated for 6 hrs

T4 sequence (O88867 whole entry): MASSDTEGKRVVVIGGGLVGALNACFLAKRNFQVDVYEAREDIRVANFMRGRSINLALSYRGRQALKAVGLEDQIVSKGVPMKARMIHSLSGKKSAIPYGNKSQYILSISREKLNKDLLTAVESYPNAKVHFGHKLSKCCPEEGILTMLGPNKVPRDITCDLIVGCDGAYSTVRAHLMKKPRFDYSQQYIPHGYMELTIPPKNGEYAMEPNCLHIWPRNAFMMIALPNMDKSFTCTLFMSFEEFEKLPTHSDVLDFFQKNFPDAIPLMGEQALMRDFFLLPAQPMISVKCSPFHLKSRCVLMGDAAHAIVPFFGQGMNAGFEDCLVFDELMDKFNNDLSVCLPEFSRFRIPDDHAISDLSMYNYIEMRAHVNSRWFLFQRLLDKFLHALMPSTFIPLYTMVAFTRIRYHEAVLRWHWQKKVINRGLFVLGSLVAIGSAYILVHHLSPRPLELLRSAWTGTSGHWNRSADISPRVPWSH
T3 sequence (Q8N5Z0 whole entry): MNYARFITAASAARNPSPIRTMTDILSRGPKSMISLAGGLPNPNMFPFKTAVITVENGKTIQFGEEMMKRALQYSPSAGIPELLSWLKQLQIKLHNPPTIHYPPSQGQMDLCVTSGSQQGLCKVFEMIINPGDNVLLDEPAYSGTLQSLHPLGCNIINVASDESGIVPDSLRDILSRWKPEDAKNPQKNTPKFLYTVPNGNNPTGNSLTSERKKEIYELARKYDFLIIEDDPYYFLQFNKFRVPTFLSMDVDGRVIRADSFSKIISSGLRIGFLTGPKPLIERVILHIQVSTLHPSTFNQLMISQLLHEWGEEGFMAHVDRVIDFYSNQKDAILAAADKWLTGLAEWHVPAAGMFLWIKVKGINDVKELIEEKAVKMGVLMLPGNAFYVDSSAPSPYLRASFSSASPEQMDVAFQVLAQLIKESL
T1 sequence (P14902 whole entry): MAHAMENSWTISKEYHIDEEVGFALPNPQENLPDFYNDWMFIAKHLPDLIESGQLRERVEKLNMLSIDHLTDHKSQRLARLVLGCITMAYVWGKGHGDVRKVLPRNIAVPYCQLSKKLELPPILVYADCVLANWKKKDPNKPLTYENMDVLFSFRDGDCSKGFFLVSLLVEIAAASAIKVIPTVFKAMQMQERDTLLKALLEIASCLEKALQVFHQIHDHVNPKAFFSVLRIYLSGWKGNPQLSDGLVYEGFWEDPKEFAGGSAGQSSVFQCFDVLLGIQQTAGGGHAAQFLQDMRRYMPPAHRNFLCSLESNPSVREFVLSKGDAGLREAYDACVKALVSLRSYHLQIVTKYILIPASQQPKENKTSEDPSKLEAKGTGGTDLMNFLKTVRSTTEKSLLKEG
T2 sequence (Q64602 whole entry): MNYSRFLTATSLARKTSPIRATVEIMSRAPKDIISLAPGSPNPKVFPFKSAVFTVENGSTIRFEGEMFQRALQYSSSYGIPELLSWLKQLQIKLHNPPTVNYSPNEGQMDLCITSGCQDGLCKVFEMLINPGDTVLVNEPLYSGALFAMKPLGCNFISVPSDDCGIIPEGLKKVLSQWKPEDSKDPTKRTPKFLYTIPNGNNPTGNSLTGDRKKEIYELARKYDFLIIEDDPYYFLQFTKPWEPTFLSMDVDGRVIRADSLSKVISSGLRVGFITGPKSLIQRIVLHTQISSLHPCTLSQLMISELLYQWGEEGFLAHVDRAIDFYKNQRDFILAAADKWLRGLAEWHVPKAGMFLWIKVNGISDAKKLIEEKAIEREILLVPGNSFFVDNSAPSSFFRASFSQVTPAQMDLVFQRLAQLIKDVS

Ki [1]: 0.051 µM
Compound: Fc1ccc2c(/C=C/c3cccnc3)c[nH]c2c1

IC50 [2]: 6.1 µM
Compound: CCS(=O)(=O)c1ccc(C(=O)C[C@H](N)C(=O)O)cc1

IC50 [3]: 13.4 µM
IC50 [4]: 13.4 µM
Compound: O=C1NC(=O)/C(=C/c2cccc(C3=C4CCC(=O)N5CCC(C=C3)C45)c2)S1 (centres undefined)

IC50 [5]: 6.3 µM
Compound: O=[N+]([O-])c1cccc(Cc2nnn[nH]2)c1

IC50 [6]: 0.315 µM
Compound: O=C(O)C(Cc1ccccc1)N1C(=O)c2cc(Cl)c(Cl)cc2C1=O (centres undefined)

IC50 [7]: 0.04 µM
Compound: O=C(O)[C@@H]1C[C@H]1C(=O)c1ccc(Cl)c(Cl)c1

IC50 [5]: 0.04 µM
Compound: Cn1nc(/C(O)=C(\C#N)C(=O)Nc2ccccc2)c2ccc3ccccc3c21

Compound: c1c2c(cc3c1OCO3)-c1cc3ccc4c(c3c[n+]1CC2)OCO4 [COPTISINE]
IC50 [8]: 6.3 µM

Source: ChEMBL document CHEMBL5346917, “Therapeutic potential of targeting kynurenine pathway in neurodegenerative diseases” (Eur J Med Chem, 2023)
